Patent US9365512B2, “Isoindoline derivatives, pharmaceutical compositions containing them, and their use in therapy” (AbbVie Deutschland GmbH & Co. KG, priority 2012, dated 2016)

biological target: T1, human GlyT1c transporter (Homo sapiens, UniProt P48067); experiment: Radioligand binding assay using recombinant CHO cell membranes expressing human GlyT1; conditions: read-out: radioligand binding Kiapp
T1 construct: expressed in transfected cells; host or cells: CHO cells (recombinant; membranes)
T1 sequence (P48067 1-706): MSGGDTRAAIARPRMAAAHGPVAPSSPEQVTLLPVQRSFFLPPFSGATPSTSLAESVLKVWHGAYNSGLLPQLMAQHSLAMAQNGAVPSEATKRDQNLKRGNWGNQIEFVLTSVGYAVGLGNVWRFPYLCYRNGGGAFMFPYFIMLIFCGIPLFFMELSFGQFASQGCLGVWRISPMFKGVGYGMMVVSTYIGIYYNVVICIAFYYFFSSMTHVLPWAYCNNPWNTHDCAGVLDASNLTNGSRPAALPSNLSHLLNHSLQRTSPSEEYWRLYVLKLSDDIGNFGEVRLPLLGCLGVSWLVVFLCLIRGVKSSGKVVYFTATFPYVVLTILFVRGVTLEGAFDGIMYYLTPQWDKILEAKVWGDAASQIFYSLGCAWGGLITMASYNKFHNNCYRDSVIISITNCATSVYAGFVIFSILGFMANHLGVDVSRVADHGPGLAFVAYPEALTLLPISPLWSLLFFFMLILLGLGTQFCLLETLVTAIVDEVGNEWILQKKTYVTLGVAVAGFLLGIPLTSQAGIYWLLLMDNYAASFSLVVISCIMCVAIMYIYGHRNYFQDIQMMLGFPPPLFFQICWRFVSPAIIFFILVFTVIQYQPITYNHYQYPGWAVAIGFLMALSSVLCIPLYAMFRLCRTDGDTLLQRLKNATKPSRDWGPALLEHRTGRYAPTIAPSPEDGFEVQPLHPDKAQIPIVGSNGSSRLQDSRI
Experimental: 2. Radioligand Binding Assays Using Recombinant CHO Cell Membranes Expressing Human GlyT1:
Radioligand binding to human GlyT1c transporter-expressing membranes was determined as described in Mezler et al., Molecular Pharmacology 74:1705-1715, 2008.

Ki [nM]	Structure (SMILES)
> 10000	CC(C)(C)OC(=O)NCCOc1ccc2c(c1)C(Cc1ccccc1)NC2=O (centres unmarked) [Example 3, [2-(3-Benzyl-1-oxo-2,3-dihydro-1H-isoindol-5-yloxy)-ethyl]-carbamic acid tert-butyl ester]
< 1000	O=S(=O)(CC1CC1)NCCOc1cc2c(cc1F)CNC2Cc1ccccc1 (centres unmarked) [Example 23, N-[2-(3-Benzyl-6-fluoro-2,3-dihydro-1H-isoindol-5-yloxy)-ethyl]-C-cyclopropyl-methanesulfonamide]
< 1000	Cn1cnc(S(=O)(=O)NCc2ccc3c(c2)C(Cc2ccccc2)NC3)c1 (centres unmarked) [Example 4, N-[(3-Benzylisoindolin-5-yl)methyl]-1-methyl-1H-imidazole-4-sulfonamide]
< 10000	CCCS(=O)(=O)NCc1ccc2c(c1)C(Cc1ccccc1)NC2=O (centres unmarked) [Example 28, Propane-1-sulfonic acid (3-benzyl-1-oxo-2,3-dihydro-1H-isoindol-5-ylmethyl)-amide]
< 100	Cn1cnc(S(=O)(=O)NCCOc2cc3c(cc2F)CNC3Cc2ccccc2)c1 (centres unmarked) [Example 21, 1-Methyl-1H-imidazole-4-sulfonic acid [2-(3-benzyl-6-fluoro-2,3-dihydro-1H-isoindol-5-yloxy)-ethyl]-amide]
< 1000	Cn1cnc(S(=O)(=O)NCCOc2ccc3c(c2)C(Cc2ccccc2)NC3=O)c1 (centres unmarked) [Example 1, N-[2-(3-benzyl-1-oxo-isoindolin-5-yl)oxyethyl]-1-methyl-1H-imidazole-4-sulfonamide]
< 10000	O=S(=O)(CC1CC1)NCc1ccc2c(c1)C(Cc1ccccc1)NC2 (centres unmarked) [Example 29, N-(3-Benzyl-2,3-dihydro-1H-isoindol-5-ylmethyl)-C-cyclopropyl-methanesulfonamide]
< 10000	CC1(Cc2ccccc2)NC(=O)c2ccc(OCCNS(=O)(=O)CC3CC3)cc21 (centres unmarked) [Example 17, N-[2-(3-Benzyl-3-methyl-1-oxo-isoindolin-5-yl)oxyethyl]-1-cyclopropyl-methanesulfonamide]
< 10000	Cn1cnc(S(=O)(=O)NCCOc2ccc3c(c2)C(C)(Cc2ccccc2)NC3=O)c1 (centres unmarked) [Example 8, N-[2-(3-Benzyl-3-methyl-1-oxo-isoindolin-5-yl)oxyethyl]-1-methyl-1H-imidazole-4-sulfonamide]
< 100000	CCS(=O)(=O)NCc1ccc2c(c1)C(Cc1ccccc1)NC2 (centres unmarked) [Example 30, Ethanesulfonic acid (3-benzyl-2,3-dihydro-1H-isoindol-5-ylmethyl)-amide]
< 1000	Cn1cc(S(=O)(=O)NCCOc2ccc3c(c2)C(Cc2ccccc2)N(C(=O)C(F)(F)F)C3)cn1 (centres unmarked) [Example 12]
< 1000	CN1Cc2cc(F)c(OCCNS(=O)(=O)CC3CC3)cc2C1Cc1ccccc1 (centres unmarked) [Example 20, N-(2-(3-Benzyl-6-fluoro-2-methylisoindolin-5-yloxy)ethyl)-1-cyclopropyl-methanesulfonamide]
< 1000	Cn1cnc(S(=O)(=O)NCCOc2cc3c(cc2F)C(=O)NC3Cc2ccccc2)c1 (centres unmarked) [Example 19, N-[2-(3-Benzyl-6-fluoro-1-oxo-isoindolin-5-yl)oxyethyl]-1-methyl-1H-imidazole-4-sulfonamide]
< 10000	Cn1cc(S(=O)(=O)NCCOc2ccc3c(c2)C(C)(Cc2ccccc2)NC3=O)cn1 (centres unmarked) [Example 9, N-[2-(3-Benzyl-3-methyl-1-oxo-isoindolin-5-yl)oxyethyl]-1-methyl-1H-pyrazole-4-sulfonamide]
< 100	Cn1cc(S(=O)(=O)NCCOc2ccc3c(c2)C(C)(Cc2ccccc2)NC3)cn1 (centres unmarked) [Example 10, N-[2-(3-Benzyl-3-methyl-isoindolin-5-yl)oxyethyl]-1-methyl-1H-pyrazole-4-sulfonamide]
< 10000	O=C1NC(Cc2ccccc2)c2cc(CNS(=O)(=O)CC3CC3)ccc21 (centres unmarked) [Example 26, N-(3-Benzyl-1-oxo-2,3-dihydro-1H-isoindol-5-ylmethyl)-C-cyclopropyl-methanesulfonamide]
< 100	CN1Cc2ccc(OCCNS(=O)(=O)c3cn(C)cn3)cc2C1Cc1ccccc1 (centres unmarked) [Example 14, N-[2-(3-Benzyl-2-methyl-isoindolin-5-yl)oxyethyl]-1-methyl-1H-imidazole-4-sulfonamide; 2,2,2-trifluoroacetic acid]
< 1000	Cn1cc(S(=O)(=O)NCCOc2ccc3c(c2)C(Cc2ccccc2)N(CC(F)(F)F)C3)cn1 (centres unmarked) [Example 15, N-[2-[3-Benzyl-2-(2,2,2-trifluoroethyl)isoindolin-5-yl]oxyethyl]-1-methyl-1H-pyrazole-4-sulfonamide; 2,2,2-trifluoroacetic acid]
< 10000	CCCS(=O)(=O)NCc1ccc2c(c1)C(Cc1ccccc1)NC2 (centres unmarked) [Example 31, Propane-1-sulfonic acid (3-benzyl-2,3-dihydro-1H-isoindol-5-ylmethyl)-amide]
< 10000	CCS(=O)(=O)NCCOc1cc2c(cc1F)CNC2Cc1ccccc1 (centres unmarked) [Example 25, Ethanesulfonic acid [2-(3-benzyl-6-fluoro-2,3-dihydro-1H-isoindol-5-yloxy)-ethyl]-amide]
< 10000	O=C1NC(Cc2ccccc2)c2cc(OCCNS(=O)(=O)CC3CC3)c(F)cc21 (centres unmarked) [Example 22, N-[2-(3-Benzyl-6-fluoro-1-oxo-2,3-dihydro-1H-isoindol-5-yloxy)-ethyl]-C-cyclopropyl-methanesulfonamide]
< 100	Cn1cc(S(=O)(=O)NCCOc2ccc3c(c2)C(Cc2ccccc2)N(C2COC2)C3)cn1 (centres unmarked) [Example 16, N-[2-[3-Benzyl-2-(oxetan-3-yl)isoindolin-5-yl]oxyethyl]-1-methyl-1H-pyrazole-4-sulfonamide; 2,2,2-trifluoroacetic acid]
< 10000	CCS(=O)(=O)NCCOc1cc2c(cc1F)C(=O)NC2Cc1ccccc1 (centres unmarked) [Example 24, Ethanesulfonic acid [2-(3-benzyl-6-fluoro-1-oxo-2,3-dihydro-1H-isoindol-5-yloxy)-ethyl]-amide]
< 10000	Cn1cc(S(=O)(=O)NCCOc2ccc3c(c2)C(Cc2ccccc2)NC3=O)cn1 (centres unmarked) [Example 6, N-[2-(3-Benzyl-1-oxo-isoindolin-5-yl)oxyethyl]-1-methyl-1H-pyrazole-4-sulfonamide]
< 100	Cn1cnc(S(=O)(=O)NCCOc2ccc3c(c2)C(C)(Cc2ccccc2)NC3)c1 (centres unmarked) [Example 11, N-[2-(3-Benzyl-3-methyl-isoindolin-5-yl)oxyethyl]-1-methyl-imidazole-4-sulfonamide]
< 10	CN1Cc2ccc(OCCNS(=O)(=O)c3cnn(C)c3)cc2C1Cc1ccccc1 (centres unmarked) [Example 13, N-[2-(3-Benzyl-2-methyl-isoindolin-5-yl)oxyethyl]-1-methyl-1H-pyrazole-4-sulfonamide; 2,2,2-trifluoroacetic acid]
< 1000	CC1(Cc2ccccc2)NCc2ccc(OCCNS(=O)(=O)CC3CC3)cc21 (centres unmarked) [Example 18, N-[2-(3-Benzyl-3-methyl-isoindolin-5-yl)oxyethyl]-1-cyclopropyl-methanesulfonamide; 2,2,2-trifluoroacetic acid]
< 1000	Cn1cnc(S(=O)(=O)NCc2ccc3c(c2)C(Cc2ccccc2)NC3=O)c1 (centres unmarked) [Example 2, N-[(3-Benzyl-1-oxo-isoindolin-5-yl)methyl]-1-methyl-1H-imidazole-4-sulfonamide]

test system: not listed separately; experiment: Metabolic stability in human liver microsomes (microsomal clearance); assay type: in vitro ADME; conditions: 0.5 μM test substance, 0.25 mg microsomal protein/ml, pH 7.4, 37° C., NADPH
Experimental: The metabolic stability of a compound can be measured for example by incubating a solution of this compound with liver microsomes from particular species (for example rat, dog or human) and determining the half-life of the compound under these conditions (RS Obach, Curr Opin Drug Discov Devel. 2001, 4, 36-44). It is possible in this connection to conclude from an observed longer half-life that the metabolic stability of the compound is improved. The stability in the presence of human liver microsomes is of particular interest because it makes it possible to predict the metabolic degradation of the compound in the human liver. Compounds with increased metabolic stability (measured in the liver microsome test) are therefore probably also degraded more slowly in the liver. The slower metabolic degradation in the liver may lead to higher and/or longer-lasting concentrations (active levels) of the compound in the body, so that the elimination half-life of the compounds of the invention is increased. Increased and/or longer-lasting active levels may lead to a better activity of the compound in therapeutic treatment. […]
Metabolic stability was determined as follows:
0.5 μM test substance was preincubated together with human liver microsomes (0.25 mg of microsomal protein/ml) in 0.05 M potassium phosphate buffer of pH 7.4 in microtiter plates at 37° C. for 5 min. […] The samples were frozen until analyzed. The remaining concentration of undegraded test substance was determined by LC MSMS. The half-life (T½) was determined from the gradient of the signal of test substance/unit time plot, allowing to calculate the half-life of the test substance, assuming first order kinetics, from the decrease in the concentration of the compound with time. The microsomal clearance (mCl) was calculated from mCl=ln 2/T½/(content of microsomal protein in mg/ml)×1000 (modified from references: Di, The Society for Biomolecular Screening, 2003, 453-462; Obach, DMD, 1999 vol 27. N 11, 1350-1359).

human mCl [µL/min/mg]	Structure (SMILES)
<1	Cn1cnc(S(=O)(=O)NCc2ccc3c(c2)C(Cc2ccccc2)NC3)c1 (centres unmarked) [Example 4, N-[(3-Benzylisoindolin-5-yl)methyl]-1-methyl-1H-imidazole-4-sulfonamide]
